Drawing on patent publication US20240228535A1 (priority 2022, published 2024), this text covers IC50 for 31 compounds.

This assay deals with SARS2 coronavirus 3CL protease (Severe acute respiratory syndrome coronavirus 2, UniProt P0DTD1). The assay can be described thus: biochemical. The settings on record: 5 nM enzyme, 30 min pre-incubation with compound, 15 μM peptide substrate, 4 h at room temperature; read-out: FRET Potency (nM); IC50 values in the SARS2 3CLPro FRET assay.
Regarding `C[C@@H]1C[C@@H](C[C@H](NC(=O)c2cc(Cl)ccc2NC(=O)c2cc(C(F)(F)F)ccn2)C(=O)C(=O)NC2CC2)C(=O)N1` [Example 86, N-[4-chloro-2-[[(1S)-3-(cyclopropylamino)-1-[[(3S,5R)-5-methyl-2-oxo-pyrrolidin-3-yl]methyl]-2,3-dioxo-propyl]carbamoyl]phenyl]-4-(trifluoromethyl)pyridine-2-carboxamide], the IC50 stood at 6.8 nM.
The result for `CNC(=O)C(=O)[C@H](C[C@@H]1C[C@@H](C)NC1=O)NC(=O)c1cc(Cl)ccc1NC(=O)CCC(F)(F)F` [Example 178, 5-chloro-N-[(1S)-3-(methylamino)-1-[[(3S,5R)-5-methyl-2-oxo-pyrrolidin-3-yl]methyl]-2,3-dioxo-propyl]-2-(4,4,4-trifluorobutanoylamino) benzamide] reads 7 nM; that for `CNC(=O)C(=O)[C@H](C[C@@H]1CCNC1=O)NC(=O)c1cc(Cl)ccc1NC(=O)OC1CC(F)(F)C1` [Example 173], 6.7 nM.
As for `O=C(NC1CC1)C(=O)[C@H](C[C@@H]1CCNC1=O)NC(=O)c1cc(Cl)c(F)cc1NC(=O)c1cncc(C(F)(F)F)c1` [Example 79], the figure is 11.3 nM; as for `CNC(=O)C(=O)[C@H](C[C@@H]1C[C@@H](C)NC1=O)NC(=O)c1cc(Cl)ncc1NC(=O)OC` [Example 118], 23.9 nM; as for `CNC(=O)C(=O)[C@H](C[C@@H]1C[C@@H](C)NC1=O)NC(=O)c1cc(Cl)ccc1NC(=O)C1CCCC1(F)F` (stereo partly drawn) [Example 184, 5-chloro-2-[(2,2-difluorocyclopentanecarbonyl)amino]-N-[(1S)-3-(methylamino)-1-[[(3S,5R)-5-methyl-2-oxo-pyrrolidin-3-yl]methyl]-2,3-dioxo-propyl]benzamide], 13.5 nM.
As for `C[C@@H]1C[C@@H](C[C@H](NC(=O)c2cc(Cl)ccc2NC(=O)N(C)CC2CCC(F)(F)CC2)C(=O)C(=O)NC2CC2)C(=O)N1` [Example 105, 5-chloro-N—((S)-4-(cyclopropylamino)-1-((3S,5R)-5-methyl-2-oxopyrrolidin-3-yl)-3,4-dioxobutan-2-yl)-2-(3-((4,4-difluorocyclohexyl)methyl)-3-methylureido)benzamide], the figure is 10.9 nM; as for `CNC(=O)C(=O)[C@H](C[C@@H]1CCNC1=O)NC(=O)c1cc(C(F)(F)F)ccc1NC(=O)C1(C(F)(F)F)CC1` [Example 95, N-[(1S)-3-(methylamino)-2,3-dioxo-1-[[(3S)-2-oxopyrrolidin-3-yl]methyl]propyl]-5-(trifluoromethyl)-2-[[1-(trifluoromethyl)cyclopropane-carbonyl]amino]benzamide], 44.7 nM; as for `C[C@@H]1C[C@@H](C[C@H](NC(=O)c2cc(Cl)ccc2NC(=O)OC2CC2)C(=O)C(=O)NC2CC2)C(=O)N1` [Example 160, cyclopropyl N-[4-chloro-2-[[(1S)-3-(cyclopropylamino)-1-[[(3S,5R)-5-methyl-2-oxo-pyrrolidin-3-yl]methyl]-2,3-dioxo-propyl]carbamoyl]phenyl] carbamate], 8.8 nM.
Consider `CNC(=O)C(=O)[C@H](C[C@@H]1C[C@@H](C)NC1=O)NC(=O)c1cc(Cl)cnc1NC(=O)OC` [Example 119, methyl N-[5-chloro-3-[[(1S)-3-(methylamino)-1-[[(3S,5R)-5-methyl-2-oxo-pyrrolidin-3-yl]methyl]-2,3-dioxo-propyl]carbamoyl]-2-pyridyl]carbamate], for which the IC50 came to 5.6 nM.
For `C[C@@H]1C[C@@H](C[C@H](NC(=O)c2cc(Cl)ccc2NC(=O)C(F)(F)F)C(=O)C(=O)NC2CC2)C(=O)N1` [Example 177, 5-chloro-N-[(1S)-3-(cyclopropylamino)-1-[[(3S,5R)-5-methyl-2-oxo-pyrrolidin-3-yl]methyl]-2,3-dioxo-propyl]-2-[(2,2,2-trifluoroacetyl)amino] benzamide], the IC50 was 10.9 nM.
As for `CNC(=O)C(=O)[C@H](C[C@@H]1C[C@@H](C)NC1=O)NC(=O)c1cc(Cl)ccc1NC(=O)C1(CC(F)(F)F)CC1` [Example 202, 5-chloro-N-[(1S)-3-(methylamino)-1-[[(3S,5R)-5-methyl-2-oxo-pyrrolidin-3-yl]methyl]-2,3-dioxo-propyl]-2-[[1-(2,2,2-trifluoroethyl)cyclopropane-carbonyl]amino]benzamide], the figure is 11.9 nM; as for `C[C@@H]1C[C@@H](C[C@H](NC(=O)c2cc(Cl)ccc2NC(=O)C2(C(F)(F)F)CCC2)C(=O)C(=O)NC2CC2)C(=O)N1` [Example 35, 5-chloro-N-[(1S)-3-(cyclopropylamino)-1-[[(3S,5R)-5-methyl-2-oxo-pyrrolidin-3-yl]methyl]-2,3-dioxo-propyl]-2-[[1-(trifluoromethyl)cyclobutanecarbonyl]amino]benzamide], 11.1 nM.
The result for `[2H]C([2H])([2H])OC(=O)Nc1ccc(Cl)cc1C(=O)N[C@@H](C[C@@H]1C[C@@H](C)NC1=O)C(=O)C(=O)NC` [Example 112, trideuteriomethyl N-[4-chloro-2-[[(1S)-3-(methylamino)-1-[[(3S,5R)-5-methyl-2-oxo-pyrrolidin-3-yl]methyl]-2,3-dioxo-propyl]carbamoyl]phenyl] carbamate] reads 6 nM; that for `CNC(=O)C(=O)[C@H](C[C@@H]1C[C@@H](C)NC1=O)NC(=O)c1cc(Cl)ccc1NC(=O)OC1CCC(F)(F)C1` (stereo partly drawn) [Example 200, (3,3-difluorocyclopentyl) N-[4-chloro-2-[[(1S)-3-(methylamino)-1-[[(3S,5R)-5-methyl-2-oxo-pyrrolidin-3-yl]methyl]-2,3-dioxo-propyl]carbamoyl]phenyl] carbamate], 4.6 nM; that for `O=C(Nc1ccc(Cl)cc1C(=O)N[C@@H](C[C@@H]1CCNC1=O)C(=O)C(=O)NC1CC1)OCC1CC1` [Example 162, cyclopropylmethyl N-[4-chloro-2-[[(1S)-3-(cyclopropylamino)-2,3-dioxo-1-[[(3S)-2-oxopyrrolidin-3-yl]methyl]propyl]carbamoyl]phenyl]carbamate], 7.5 nM.
The result for `C[C@@H]1C[C@@H](C[C@H](NC(=O)c2cc(C(F)F)ccc2NC(=O)C2(C(F)(F)F)CC2)C(=O)C(=O)NC2CC2)C(=O)N1` [Example 220, N-[(1S)-3-(cyclopropylamino)-1-[[(3S,5R)-5-methyl-2-oxo-pyrrolidin-3-yl]methyl]-2,3-dioxo-propyl]-5-(difluoromethyl)-2-[[1-(trifluoromethyl)cyclopropane-carbonyl]amino]benzamide] reads 60.3 nM; that for `C[C@@H]1C[C@@H](C[C@H](NC(=O)c2cc(Cl)ccc2NC(=O)N2CCOCC2)C(=O)C(=O)NC2CC2)C(=O)N1` [Example 194, N-[4-chloro-2-[[(1S)-3-(cyclopropylamino)-1-[[(3S,5R)-5-methyl-2-oxo-pyrrolidin-3-yl]methyl]-2,3-dioxo-propyl]carbamoyl]phenyl] morpholine-4-carboxamide], 6.8 nM; that for `CNC(=O)C(=O)[C@H](C[C@@H]1CCNC1=O)NC(=O)c1cc(Cl)ccc1NC(=O)OC(C)C(F)(F)F` (stereo partly shown) [Example 180], 4.5 nM.
As for `CNC(=O)C(=O)[C@H](C[C@@H]1C[C@@H](C)NC1=O)NC(=O)c1cc(Cl)ccc1NC(=O)c1ccnc(C(F)(F)F)c1` [Example 74], the IC50 came to 6.2 nM.
For the compound `CNC(=O)C(=O)[C@H](C[C@@H]1C[C@@H](C)NC1=O)NC(=O)c1cc(Cl)ccc1NC(=O)C1COC1` [Example 135], the IC50 came to 3 nM.
The result for `CNC(=O)C(=O)[C@H](C[C@@H]1C[C@@H](C)NC1=O)NC(=O)c1cc(Cl)cc(F)c1NC(=O)OC` [Example 133, methyl N-[4-chloro-2-fluoro-6-[[(1S)-3-(methylamino)-1-[[(3S,5R)-5-methyl-2-oxo-pyrrolidin-3-yl]methyl]-2,3-dioxo-propyl]carbamoyl]phenyl] carbamate] reads 9.9 nM; that for `CNC(=O)C(=O)[C@H](C[C@@H]1C[C@@H](C)NC1=O)NC(=O)c1nc(Cl)ccc1NC(=O)OC` [Example 113], 1290 nM; that for `CNC(=O)C(=O)[C@H](C[C@@H]1C[C@@H](C)NC1=O)NC(=O)c1cc(Cl)ccc1NC(=O)c1cncc(C#N)c1` [Example 183], 10.1 nM.
The result for `CNC(=O)C(=O)[C@H](C[C@@H]1CCNC1=O)NC(=O)c1cc(F)ccc1NC(=O)c1ccnc(C(F)(F)F)c1` [Example 196, N-[4-fluoro-2-[[(1S)-3-(methylamino)-2,3-dioxo-1-[[(3S)-2-oxopyrrolidin-3-yl]methyl]propyl]carbamoyl]phenyl]-2-(trifluoromethyl)pyridine-4-carboxamide] reads 7.6 nM; that for `CNC(=O)C(=O)[C@H](C[C@@H]1C[C@@H](C)NC1=O)NC(=O)c1cc(Cl)c(Cl)cc1NC(=O)OC` [Example 144, methyl N-[4,5-dichloro-2-[[(1S)-3-(methylamino)-1-[[(3S,5R)-5-methyl-2-oxo-pyrrolidin-3-yl]methyl]-2,3-dioxo-propyl]carbamoyl]phenyl] carbamate], 5.3 nM.
Regarding `C[C@@H]1C[C@@H](C[C@H](NC(=O)c2cc(C#N)ccc2NC(=O)C23CC(F)(C2)C3)C(=O)C(=O)NC2CC2)C(=O)N1` [Example 13], the IC50 came to 46.7 nM.
For `CNC(=O)C(=O)[C@H](C[C@@H]1C[C@@H](C)NC1=O)NC(=O)c1cc(Cl)ccc1NC(=O)C1CCCC(F)(F)C1` (single isomer, unassigned) [Example 198], the IC50 is 5.5 nM.
As to `CNC(=O)C(=O)[C@H](C[C@@H]1CCNC1=O)NC(=O)c1cc(Cl)ccc1NC(=O)c1ccnc(C(F)(F)F)c1` [Example 90], the IC50 was 12.3 nM.
As for `CC(OC(=O)Nc1ccc(Cl)cc1C(=O)N[C@@H](C[C@@H]1C[C@@H](C)NC1=O)C(=O)C(=O)NC1CC1)C(F)(F)F` (stereo partly drawn) [Example 211, (2,2,2-trifluoro-1-methyl-ethyl) N-[4-chloro-2-[[(1S)-3-(cyclopropylamino)-1-[[(3S,5R)-5-methyl-2-oxo-pyrrolidin-3-yl]methyl]-2,3-dioxo-propyl]carbamoyl]phenyl] carbamate], the figure is 7.3 nM; as for `CNC(=O)C(=O)[C@H](C[C@@H]1C[C@@H](C)NC1=O)NC(=O)c1cc(Cl)ccc1NC(=O)C(C)c1ccc(C(F)(F)F)nc1` (single isomer, unassigned) [Example 230], 7 nM.
